US6482815B1 (priority 1999, dated 2002)
pIC50: −log10 of the molar value. Like-named read-outs stand apart in the source and are kept apart here.

Key:
[1] = test system: MOLT-3; experiment: cells; type: cell-based; conditions: Homo sapiens, MOLT-3, read-out: MOLT-3 IC50
[2] = test system: ALL1; experiment: cells; type: cell-based; conditions: Homo sapiens, read-out: ALL1 IC50
[3] = test system: RS4;11; experiment: cells; type: cell-based; conditions: Homo sapiens, RS4-11, read-out: RS4;11 IC50
[4] = test system: NALM-6; experiment: cells; type: cell-based; conditions: Homo sapiens, NALM-6, read-out: NALM-6 IC50
[5] = test system: NALM-6; experiment: Anti-proliferative activity (colony counts), NALM-6; type: cell-based, human
Description: (§1) The dose-responsive anti-proliferative activity of various organic arsenic acid substituted compounds against leukemic cell lines (NALM-6 and MOLT-3) is shown below in Table 3. FIGS. 3A-3F show dose response curves in ALL1, NALM-6, and MOLT-3 cells.

[6] = test system: leukemic cell lines (NALM-6, MOLT-3, ALL1, RS4;11); experiment: cells; conditions: Homo sapiens, read-out: IC50 values in leukemic cell lines
[7] = test system: MOLT-3; experiment: Anti-proliferative activity (colony counts), MOLT-3; type: cell-based, human
Description: as §1

[8] = test system: primary leukemic cells; experiment: MTT cytotoxicity against primary leukemic cells; conditions: cells from 5 leukemia patients, FIGS. 4A-4E
[9] = test system: BT20; experiment: cells; conditions: Homo sapiens, BT-20, read-out: BT20 IC50
[10] = test system: BT20
[11] = test system: NALM-6 cells; experiment: MTT cytotoxicity over 1-4 days versus arsenic trioxide, NALM-6; conditions: MTT, doses 0.07 μM to 5 μM
[12] = NALM-6, concentration 0.1 (mM as printed)
[13] = NALM-6, concentration 1 (mM as printed)
[14] = NALM-6, concentration 10 (mM as printed)
[15] = NALM-6, concentration 100 (mM as printed)
[16] = MOLT-3, concentration 0.1 (mM as printed)
[17] = MOLT-3, concentration 1 (mM as printed)
[18] = MOLT-3, concentration 10 (mM as printed)
[19] = MOLT-3, concentration 100 (mM as printed)

CSc1nccc(Nc2ccc([As](=O)(O)O)cc2)n1 [WHI-P380, 2-Methylthio-4-(4′-phenylarsenic acid)-aminopyrimidine]
pIC50 [1]: 4.85
pIC50 [2]: 5.21
pIC50 [3]: 4.99
pIC50 [4]: 5.77
melting point: > 300 °C
% Inhibition [5, 12]: 66.9%
Mean No. of Colonies/10^6 Cells [5, 12]: 400(116, 684) Colonies/10^6 Cells
% Inhibition [5, 13]: 99.8%
Mean No. of Colonies/10^6 Cells [5, 13]: 2(3, 1) Colonies/10^6 Cells
% Inhibition [5, 14]: 100%
Mean No. of Colonies/10^6 Cells [5, 14]: 0 Colonies/10^6 Cells
% Inhibition [5, 15]: 100%
Mean No. of Colonies/10^6 Cells [5, 15]: 0 Colonies/10^6 Cells
pIC50 [6]: 4.85 to 5.77
% Inhibition [7, 16]: 52.8%
Mean No. of Colonies/10^6 Cells [7, 16]: 678(624, 732) Colonies/10^6 Cells
% Inhibition [7, 17]: 69.7%
Mean No. of Colonies/10^6 Cells [7, 17]: 436(272, 600) Colonies/10^6 Cells
% Inhibition [7, 18]: 100%
Mean No. of Colonies/10^6 Cells [7, 18]: 0 Colonies/10^6 Cells
% Inhibition [7, 19]: 100%
Mean No. of Colonies/10^6 Cells [7, 19]: 0 Colonies/10^6 Cells
cytotoxic activity against primary leukemic cells (in words) [8]: susceptible to the cytotoxic effects
pIC50 [9]: 3.62

O=[As](O)(O)c1ccc(N=Nc2ccc(Nc3ncnc4[nH]cnc34)cc2)cc1 [WHI-P371, 6-[(4′-Aminophenylazo)-phenylarsenic acid]-purine]
pIC50 [1]: 4.67
pIC50 [2]: 4.61
pIC50 [3]: 4.79
pIC50 [4]: 4.82
melting point: > 300 °C
% Inhibition [5, 12]: 8.8%
Mean No. of Colonies/10^6 Cells [5, 12]: 3846(3696, 3996) Colonies/10^6 Cells
% Inhibition [5, 13]: 76.4%
Mean No. of Colonies/10^6 Cells [5, 13]: 994(616, 1372) Colonies/10^6 Cells
% Inhibition [5, 14]: 100%
Mean No. of Colonies/10^6 Cells [5, 14]: 0 Colonies/10^6 Cells
% Inhibition [5, 15]: 100%
Mean No. of Colonies/10^6 Cells [5, 15]: 0 Colonies/10^6 Cells
Mean No. of Colonies/10^6 Cells [7, 16]: 1098(1004, 1192) Colonies/10^6 Cells
% Inhibition [7, 17]: 27.9%
Mean No. of Colonies/10^6 Cells [7, 17]: 761(678, 844) Colonies/10^6 Cells
% Inhibition [7, 18]: 100%
Mean No. of Colonies/10^6 Cells [7, 18]: 0 Colonies/10^6 Cells
% Inhibition [7, 19]: 100%
Mean No. of Colonies/10^6 Cells [7, 19]: 0 Colonies/10^6 Cells
cytotoxic activity against primary leukemic cells (in words) [8]: susceptible to the cytotoxic effects
pIC50 [9]: < 3.60

CSc1nccc(Nc2ccc(N=Nc3ccc([As](=O)(O)O)cc3)cc2)n1 [WHI-P370, 2-Methylthio-4-[(4′-aminophenylazo)-phenylarsenic acid]pyrimidine]
pIC50 [1]: 5.54
pIC50 [2]: 5.72
pIC50 [3]: 5.32
pIC50 [4]: 5.22
melting point: 240 to 242 °C
% Inhibition [5, 12]: 30.9%
Mean No. of Colonies/10^6 Cells [5, 12]: 2194(2860, 2968) Colonies/10^6 Cells
% Inhibition [5, 13]: 100%
Mean No. of Colonies/10^6 Cells [5, 13]: 0 Colonies/10^6 Cells
% Inhibition [5, 14]: 100%
Mean No. of Colonies/10^6 Cells [5, 14]: 0 Colonies/10^6 Cells
% Inhibition [5, 15]: 100%
Mean No. of Colonies/10^6 Cells [5, 15]: 0 Colonies/10^6 Cells
% Inhibition [7, 16]: 6.1%
Mean No. of Colonies/10^6 Cells [7, 16]: 992(896, 1088) Colonies/10^6 Cells
% Inhibition [7, 17]: 100%
Mean No. of Colonies/10^6 Cells [7, 17]: 0 Colonies/10^6 Cells
% Inhibition [7, 18]: 100%
Mean No. of Colonies/10^6 Cells [7, 18]: 0 Colonies/10^6 Cells
% Inhibition [7, 19]: 100%
Mean No. of Colonies/10^6 Cells [7, 19]: 0 Colonies/10^6 Cells
cytotoxic against the breast cancer cell line BT20 (in words) [10]: cytotoxic
cytotoxic activity against primary leukemic cells (in words) [8]: susceptible to the cytotoxic effects
pIC50 [9]: 4.17

COc1cc2ncnc(Nc3ccccc3[As](=O)(O)O)c2cc1OC [WHI-P378, 4-(2′-phenylarsenic acid)amino-6,7-dimethoxyquinazoline]
pIC50 [1]: 4.17
pIC50 [2]: 3.89
pIC50 [3]: 3.94
pIC50 [4]: 4.33
melting point: > 300 °C
pIC50 [9]: < 3.60

Nc1nc(N)nc(Nc2ccc(N=Nc3ccc([As](=O)(O)O)cc3)cc2)n1 [WHI-P374, 2,6-Diamino-4[(4′-aminophenylazo)-phenylarsenic acid]-1,3,5-triazine]
pIC50 [1]: 3.98
pIC50 [2]: 4.25
pIC50 [3]: 4.27
pIC50 [4]: 4.30
melting point: > 300 °C
cytotoxic against the breast cancer cell line BT20 (in words) [10]: cytotoxic
pIC50 [9]: 4.86

COc1cc2ncnc(Nc3ccc([As](=O)(O)O)cc3)c2cc1OC
melting point: > 300 °C

COc1cc2ncnc(Nc3ccc(N=Nc4ccc([As](=O)(O)O)cc4)cc3)c2cc1OC [WHI-P273, 4-[(6′,7′-Dimethoxyquinazoline-4′)-aminophenylazo]phenyl arsenic acid]
pIC50 [1]: 4.92
pIC50 [2]: 5.09
pIC50 [3]: 5.11
pIC50 [4]: 5.14
% Inhibition [5, 12]: 13.7%
Mean No. of Colonies/10^6 Cells [5, 12]: 3638(3260, 4016) Colonies/10^6 Cells
% Inhibition [5, 13]: 98.5%
Mean No. of Colonies/10^6 Cells [5, 13]: 61(24, 96) Colonies/10^6 Cells
% Inhibition [5, 14]: 100%
Mean No. of Colonies/10^6 Cells [5, 14]: 0 Colonies/10^6 Cells
% Inhibition [5, 15]: 100%
Mean No. of Colonies/10^6 Cells [5, 15]: 0 Colonies/10^6 Cells
Mean No. of Colonies/10^6 Cells [7, 16]: 1230(968, 1492) Colonies/10^6 Cells
% Inhibition [7, 17]: 75%
Mean No. of Colonies/10^6 Cells [7, 17]: 264(216, 312) Colonies/10^6 Cells
% Inhibition [7, 18]: 100%
Mean No. of Colonies/10^6 Cells [7, 18]: 0 Colonies/10^6 Cells
% Inhibition [7, 19]: 100%
Mean No. of Colonies/10^6 Cells [7, 19]: 0 Colonies/10^6 Cells
cytotoxic activity against primary leukemic cells (in words) [8]: susceptible to the cytotoxic effects
pIC50 [9]: < 3.60

Arsenic trioxide [reference compound]
pIC50 ([11]; read-out: Cytotoxicity against NALM-6 cells IC50, Day 1, 1 day of treatment): 5.42
pIC50 ([11]; read-out: Cytotoxicity against NALM-6 cells IC50, Day 2, 2 days of treatment): 5.49
pIC50 ([11]; read-out: Cytotoxicity against NALM-6 cells IC50, Day 3, 3 days of treatment): 5.70
pIC50 ([11]; read-out: Cytotoxicity against NALM-6 cells IC50, Day 4, 4 days of treatment): 5.92
